Laboratory results: patent publication US20260325654A1, “METHODS AND COMPOSITIONS FOR TARGETED PROTEIN DEGRADATION” (Ranok Therapeutics (Hangzhou) Co. Ltd., priority 2023, published 2026)

Experiments:
AGS = assay: CellTiter-Glo Reagent cancer cell line proliferation assay, AGS; format: cell-based, human; conditions: Homo sapiens, 24 h, KRAS(G12D) heterozygous
Source text: (§1) The following cancer cell lines were employed: • AsPC-1 human pancreatic adenocarcinoma, homozygous KRAS(G12D), (ATCC, #CRL-1682); A-427 human lung carcinoma, heterozygous KRAS(G12D), (ATCC, #HTB-53); AGS human gastric adenocarcinoma, heterozygous KRAS(G12D), (ATCC, #CRL-1739); GP2D human colon adenocarcinoma, heterozygous KRAS(G12D), (Sigma Aldrich, 95090714); SW1990 human pancreatic adenocarcinoma, homozygous KRAS(G12D), (ATCC, #CRL2172); LU65A human lung giant cell carcinoma, heterozygous KRAS(G12C), (JCRB Cell Bank, #JCRB0054); NCIH727 human lung carcinoid, heterozygous KRAS(G12V), (ATCC, #CRL-5815); MKN1 human gastric adenosquamous carcinoma KRAS (wt), (JCRB Cell Bank, #JCRB0252). Cell lines were cultured according to ATCC, JCRB and Sigma Aldrich recommendations.
(§2) Cells were plated in 96-well tissue culture plates at 4,000 cells/well and incubated at 37° C./5% CO2 for 24 hr in 100 μl of media. 3-fold serial dilutions of each test compound were prepared ranging from 20 μM to 1.02 nM. Cells were then treated with test compounds at various concentrations with a final concentration of 0.5% DMSO/well, and then incubated at 37° C./5% CO2 for 24 hr. 100 μl of CellTiter-Glo® Reagent (Promega Corporation, Madison, WI) was added to each well and processed according manufacturer's protocol. Results were analyzed and IC50-values were calculated in GraphPad 7 software.

KRAS(G12C) = target: T1, KRAS(G12C) (Homo sapiens, UniProt P01116, G12C); assay: KRAS Western Blot Protein Degradation Assay, LU65A; format: cell-based; conditions: 24 hr; for DC50: read-out: WB data LU65A DC50; for Dmax: read-out: WB data LU65A DMax
T1 construct: LU65A that expresses KRAS(G12C); host or cells: LU65A
T1 sequence (P01116 1-185 isoform P01116-2 G12C limits assumed): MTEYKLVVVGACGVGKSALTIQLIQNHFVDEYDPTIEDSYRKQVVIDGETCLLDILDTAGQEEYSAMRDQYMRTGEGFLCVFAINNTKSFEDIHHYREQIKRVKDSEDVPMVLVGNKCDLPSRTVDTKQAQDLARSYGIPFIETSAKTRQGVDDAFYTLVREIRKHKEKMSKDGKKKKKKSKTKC
Source text: as §1
(§3) Cell lines SW1990 and GP2D that express KRAS(G12D), LU65A that expresses KRAS(G12C), and NCIH727 that expresses KRAS(G12V) were seeded in 6- or 12-well tissue culture plates, and after 1 hr, test compounds were added at various concentrations and incubated at 37° C./5% CO2 for 24 hr. Cells were then washed with cold PBS, aspirated and cold RIPA buffer containing a protease/phosphatase inhibitor cocktail was added to lyse cells. After centrifugation, the total protein concentrations of cell lysates were determined using the BCA protein assay. Samples were normalized for equivalent protein concentrations, 5× SDS-PAGE loading buffer added and denatured at 100° C. for 10 min. 20 μl of each sample/well was loaded on a SDS-PAGE gel and electrophoresed for 20 min at 80 V, then 120 V for 1.5 hr. Gels were then electroblotted to nitrocellulose membranes using a wet-transfer method at 250 mA for 2.5 hr. Membranes were incubated with blocking buffer for 1 hr and washed 3 times with TBST for 5 min. Membranes were then incubated with anti-KRAS (Sigma-Aldrich, #SAB1404011) and anti-β-Actin monoclonal antibodies (Cell Signaling Technology, #3700) diluted in blocking buffer at 4° C. overnight per the manufacturer's recommendations. After washing 3 times, blots were incubated with appropriately labeled secondary antibodies for 1 hr at room temperature and washed again. Fluorescence imaging and quantitation was performed using a LI-COR Odyssey. Results was analyzed using GraphPad Prism 7 software. Compound concentrations that induced KRAS degradation (DC50 and DCmax) were calculated using GraphPad Prism 7 software.

KRAS(G12V) = target: T2, KRAS(G12V) (Homo sapiens, UniProt P01116, G12V); assay: KRAS Western Blot Protein Degradation Assay, NCIH727; format: cell-based; conditions: for DC50: 24 hr, read-out: WB data NCIH727 DC50; for Dmax: NCI-H727, 24 hr, read-out: WB data NCIH727 DMax
T2 construct: anti-KRAS Western blot degradation by PROTACs recruiting CRBN or VHL
T2 sequence (P01116 1-188 isoform P01116-2 G12V): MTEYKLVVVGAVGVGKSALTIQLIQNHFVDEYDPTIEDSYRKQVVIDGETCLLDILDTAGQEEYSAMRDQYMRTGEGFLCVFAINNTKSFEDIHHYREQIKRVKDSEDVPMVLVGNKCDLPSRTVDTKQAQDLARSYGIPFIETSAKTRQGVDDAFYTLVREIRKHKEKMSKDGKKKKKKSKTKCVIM
Source text: as §1, §3

NCIH727 = assay: CellTiter-Glo Reagent cancer cell line proliferation assay, NCIH727; format: cell-based, human; conditions: Homo sapiens, NCI-H727, 24 h, NCIH727, KRAS(G12V) heterozygous
Source text: as §1, §2

MKN1 = assay: CellTiter-Glo Reagent cancer cell line proliferation assay, MKN1; format: cell-based; conditions: Homo sapiens, MKN-1; MKN1, KRAS (wt), 24 hr
Source text: as §1, §2

GP2D = assay: CellTiter-Glo Reagent cancer cell line proliferation assay, GP2D; format: cell-based; conditions: Homo sapiens, KRAS(G12D) heterozygous, 24 hr
Source text: as §1, §2

LU65A = assay: CellTiter-Glo Reagent cancer cell line proliferation assay, LU65A; format: cell-based, human; conditions: Homo sapiens, 24 h, KRAS(G12C) heterozygous
Source text: as §1, §2

SMILES | IC50 (AGS) [nM] | DC50 (KRAS(G12C)) [nM] | Dmax (KRAS(G12C)) [%] | DC50 (KRAS(G12V)) [nM] | Dmax (KRAS(G12V)) [%] | IC50 (NCIH727) [nM] | IC50 (MKN1) [nM] | IC50 (GP2D) [nM] | IC50 (LU65A) [nM]
O=CO.[2H]C([2H])([2H])Oc1nc(-c2cc(O)cc3ccc(F)c(C#C)c23)c(F)c2nc(OCC3(CN4CCN(CC5CCN(c6ccc7c(c6)CN(C6CCC(=O)NC6=O)C7=O)CC5)CC4)CC3)nc(N3CC4CCC(C3)N4C(=O)CCC#N)c12 (stereo not shown) [Compound 114] | < 100 | < 100 | > 50 | < 100 | > 50 | < 100 | 100 to 1000 | < 100 | < 100
C#Cc1c(F)ccc2cc(O)cc(-c3ncc4c(N5CC6CCC(C5)N6C(=O)C(C)(C)C#N)nc(OCC5(CN6CCN(CC7CCN(c8ccc9c(c8)CN(C8CCC(=O)NC8=O)C9=O)CC7)CC6)CC5)nc4c3F)c12 (stereo not shown) [Compound 106] | > 1000 | > 1000 | 10 to 50 | > 1000 | 10 to 50 | > 1000 | < 100 | 100 to 1000 | > 1000
O=CO.[2H]C([2H])([2H])Oc1nc(-c2cc(O)cc3ccc(F)c(C#C)c23)c(F)c2nc(OCC3(CN4CCN(CC5CCN(c6ccc7c(c6)CN(C6CCC(=O)NC6=O)C7=O)CC5)CC4)CC3)nc(N3CC4CCC(C3)N4C(=O)CC(C)C#N)c12 (stereo not shown) [Compound 115] | < 100 | < 100 | > 50 | < 100 | > 50 | < 100 | > 1000 | < 100 | < 100
C#Cc1c(F)ccc2cc(O)cc(-c3ncc4c(N5CC6CCC(C5)N6C(=O)C(C)C#N)nc(OCC5(CN6CCN(CC7CCN(c8ccc9c(c8)CN(C8CCC(=O)NC8=O)C9=O)CC7)CC6)CC5)nc4c3F)c12 (stereo not shown) [Compound 108] | 100 to 1000 | < 100 | > 50 | < 100 | > 50 | < 100 | 100 to 1000 | 100 to 1000 | < 100
C#Cc1c(F)ccc2cc(O)cc(-c3ncc4c(N5CCN(C(=O)C=C)[C@@H](CC#N)C5)nc(OCC5(CN6CCN(CC7CCN(c8ccc9c(c8)CN(C8CCC(=O)NC8=O)C9=O)CC7)CC6)CC5)nc4c3F)c12 (stereo partly shown) [Compound 79] | – | < 100 | > 50 | – | – | > 1000 | > 1000 | – | < 100
C#Cc1c(F)ccc2cc(O)cc(-c3ncc4c(N5CC6CCC(C5)N6C(=O)[C@@H](C)C#N)nc(OCC5(CN6CCN(CC7CCN(c8ccc9c(c8)CN(C8CCC(=O)NC8=O)C9=O)CC7)CC6)CC5)nc4c3F)c12 (stereo partly shown) [Compound 109] | 100 to 1000 | – | – | < 100 | > 50 | 100 to 1000 | > 1000 | 100 to 1000 | < 100
[2H]C([2H])([2H])Oc1nc(-c2cc(O)cc3ccc(F)c(C#C)c23)c(F)c2nc(OCC3(CN4CCN(CC5CCN(c6ccc(NC7CCC(=O)NC7=O)cc6)CC5)CC4)CC3)nc(N3CC4CCC(C3)N4C(=O)CC#N)c12 (stereo not shown) [Compound 119] | 100 to 1000 | – | – | – | – | 100 to 1000 | 100 to 1000 | 100 to 1000 | 100 to 1000
C#Cc1c(F)ccc2cc(O)cc(-c3ncc4c(N5CC6CCC(C5)N6C(=O)NC(C)(C)C)nc(OCC5(CN6CCN(CC7CCN(c8ccc9c(c8)CN(C8CCC(=O)NC8=O)C9=O)CC7)CC6)CC5)nc4c3F)c12 (stereo not shown) [Compound 118] | 100 to 1000 | – | – | – | – | > 1000 | 100 to 1000 | < 100 | 100 to 1000
C#Cc1c(F)ccc2cc(O)cc(-c3ncc4c(N5CCN(C(=O)C(=C)F)[C@@H](CC#N)C5)nc(OCC5(CN6CCN(CC7CCN(c8ccc9c(c8)CN(C8CCC(=O)NC8=O)C9=O)CC7)CC6)CC5)nc4c3F)c12 (stereo partly shown) [Compound 105] | – | < 100 | > 50 | – | – | – | > 1000 | – | < 100
C#Cc1c(F)ccc2cc(O)cc(-c3nc(OC)c4c(N5CC6CCC(C5)N6C(=O)NCC(F)(F)F)nc(OCC5(CN6CCN(CC7CCN(c8ccc9c(c8)CN(C8CCC(=O)NC8=O)C9=O)CC7)CC6)CC5)nc4c3F)c12 (stereo not shown) [Compound 123] | < 100 | – | – | – | – | < 100 | > 1000 | < 100 | < 100
C#Cc1c(F)ccc2cc(O)cc(-c3ncc4c(N5CC6CCC(C5)N6C(=O)CC#N)nc(OCC5(CN6CCN(CC7CCN(c8ccc9c(c8)CN(C8CCC(=O)NC8=O)C9=O)CC7)CC6)CC5)nc4c3F)c12 (stereo not shown) [Compound 80] | – | < 100 | > 50 | 100 to 1000 | > 50 | < 100 | – | – | 100 to 1000
O=CO.[2H]C([2H])([2H])Oc1nc(-c2cc(O)cc3ccc(F)c(C#C)c23)c(F)c2nc(OCC3(CN4CCN(CC5CCN(c6ccc7c(c6)CN(C6CCC(=O)NC6=O)C7=O)CC5)CC4)CC3)nc(N3CC4CCC(C3)N4C(=O)C(C#N)CC(F)(F)F)c12 (stereo not shown) [Compound 121] | > 1000 | – | – | – | – | > 1000 | > 1000 | 100 to 1000 | < 100
C#Cc1c(F)ccc2cc(O)cc(-c3ncc4c(N5CC6CCC(C5)N6C(=O)[C@H](C)C#N)nc(OCC5(CN6CCN(CC7CCN(c8ccc9c(c8)CN(C8CCC(=O)NC8=O)C9=O)CC7)CC6)CC5)nc4c3F)c12 (stereo partly shown) [Compound 110] | > 1000 | – | – | – | – | 100 to 1000 | 100 to 1000 | > 1000 | < 100
C#Cc1c(F)ccc2cc(O)cc(-c3nc(OC)c4c(N5CCN(C(=O)CC#N)[C@@H](CC#N)C5)nc(OCC5(CN6CCN(CC7CCN(c8ccc9c(c8)CN(C8CCC(=O)NC8=O)C9=O)CC7)CC6)CC5)nc4c3F)c12 (stereo partly shown) [Compound 104] | > 1000 | – | – | – | – | > 1000 | 100 to 1000 | > 1000 | 100 to 1000
